melting point | SMILES
155 to 157 °C | O=C1/C(=C/c2ccc(SCc3ccccc3)cc2)Cc2ccccc21 [compound 7, (E)-2-[4-(Benzylthio)benzylidene]-2,3-dihydroinden-1-one]
166 to 168 °C | COc1ccc2c(c1)C/C(=C\c1ccc(SCc3ccccc3)cc1)C2=O [compound 8, (E)-2-[4-(Benzylthio)benzylidene]-2,3-dihydro-5-methoxyinden-1-one]
175 to 177 °C | COc1ccc2c(c1)C(=O)/C(=C/c1ccc(SCc3ccccc3)cc1)C2 [compound 9, (E)-2-[4-(Benzylthio)benzylidene]-2,3-dihydro-6-methoxyinden-1-one]
176 to 178 °C | COc1cc2c(c(OC)c1)C(=O)/C(=C/c1ccc(SCc3ccccc3)cc1)C2 [compound 13, (E)-2-[4-(Benzylthio)benzylidene]-2,3-dihydro-5,7-dimethoxyinden-1-one]
194 to 196 °C | O=C1/C(=C/c2ccc(SCc3ccccc3)cc2)Cc2cc3c(cc21)OCO3 [compound 14, (E)-2-[4-(Benzylthio)benzylidene]-2,3-dihydro-5,6-methylendioxyinden-1-one]
167 to 169 °C | Cc1cccc2c1C/C(=C\c1ccc(SCc3ccccc3)cc1)C2=O [compound 15, (E)-2-[4-(Benzylthio)benzylidene]-2,3-dihydro-4-methylinden-1-one]
140 to 142 °C | O=C1/C(=C/c2ccc(SCc3ccccc3)cc2)Cc2cc(Cl)ccc21 [compound 16, (E)-2-[4-(Benzylthio)benzylidene]-5-chloro-2,3-dihydroinden-1-one]
204 °C | O=C1/C(=C/c2ccc(SCc3ccccc3)cc2)Cc2ccc(Cl)cc21 [compound 17, (E)-2-[4-(Benzylthio)benzylidene]-6-chloro-2,3-dihydroinden-1-one]
181 to 183 °C | O=C1/C(=C/c2ccc(SCc3ccccc3)cc2)Cc2c(Cl)cc(Cl)cc21 [compound 18, (E)-2-[4-(Benzylthio)benzylidene]-4,6-dichloro-2,3-dihydroinden-1-one]
170 °C | O=C1/C(=C/c2ccc(OCc3ccccc3)cc2)Cc2ccccc21 [compound 20, (E)-2-[4-(Benzyloxy)benzylidene]-2,3-dihydroinden-1-one]
141 to 142 °C | COc1ccc2c(c1)C/C(=C\c1ccc(OCc3ccccc3)cc1)C2=O [compound 21, (E)-2-[4-(Benzyloxy)benzylidene]-2,3-dihydro-5-methoxyinden-1-one]
178 to 179 °C | COc1ccc2c(c1)C(=O)/C(=C/c1ccc(OCc3ccccc3)cc1)C2 [compound 22, (E)-2-[4-(Benzyloxy)benzylidene]-2,3-dihydro-6-methoxyinden-1-one]
167 to 168 °C | COc1ccc2c(c1OC)C/C(=C\c1ccc(OCc3ccccc3)cc1)C2=O [compound 23, (E)-2-[4-(Benzyloxy)benzylidene]-2,3-dihydro-4,5-dimethoxyinden-1-one]
207 to 208 °C | COc1cc2c(cc1OC)C(=O)/C(=C/c1ccc(OCc3ccccc3)cc1)C2 [compound 24, (E)-2-[4-(Benzyloxy)benzylidene]-2,3-dihydro-5,6-dimethoxyinden-1-one]
209 to 210 °C | COc1ccc(OC)c2c1C/C(=C\c1ccc(OCc3ccccc3)cc1)C2=O [compound 25, (E)-2-[4-(Benzyloxy)benzylidene]-2,3-dihydro-4,7-dimethoxyinden-1-one]
127 to 129 °C | Cc1cccc2c1C/C(=C\c1ccc(OCc3ccccc3)cc1)C2=O [compound 27, (E)-2-[4-(Benzyloxy)benzylidene]-2,3-dihydro-4-methylinden-1-one]
189 to 190 °C | O=C1/C(=C/c2ccc(OCc3ccccc3)cc2)Cc2cc(Cl)ccc21 [compound 28, (E)-2-[4-(Benzyloxy)benzylidene]-5-chloro-2,3-dihydroinden-1-one]
186 to 187 °C | O=C1/C(=C/c2ccc(OCc3ccccc3)cc2)Cc2ccc(Cl)cc21 [compound 29, (E)-2-[4-(Benzyloxy)benzylidene]-6-chloro-2,3-dihydroinden-1-one]

Source: paper PMC10385825, “Synthesis of Benzocycloalkanone-Based Michael Acceptors and Biological Activities as Antimalarial and Antitrypanosomal Agents” (Molecules, 2023)
